Biological target: T1, IKKβ (Homo sapiens, UniProt O14920)
T1 construct: gene IKBKB; Human, recombinant IKKβ
T1 sequence (O14920 1-756): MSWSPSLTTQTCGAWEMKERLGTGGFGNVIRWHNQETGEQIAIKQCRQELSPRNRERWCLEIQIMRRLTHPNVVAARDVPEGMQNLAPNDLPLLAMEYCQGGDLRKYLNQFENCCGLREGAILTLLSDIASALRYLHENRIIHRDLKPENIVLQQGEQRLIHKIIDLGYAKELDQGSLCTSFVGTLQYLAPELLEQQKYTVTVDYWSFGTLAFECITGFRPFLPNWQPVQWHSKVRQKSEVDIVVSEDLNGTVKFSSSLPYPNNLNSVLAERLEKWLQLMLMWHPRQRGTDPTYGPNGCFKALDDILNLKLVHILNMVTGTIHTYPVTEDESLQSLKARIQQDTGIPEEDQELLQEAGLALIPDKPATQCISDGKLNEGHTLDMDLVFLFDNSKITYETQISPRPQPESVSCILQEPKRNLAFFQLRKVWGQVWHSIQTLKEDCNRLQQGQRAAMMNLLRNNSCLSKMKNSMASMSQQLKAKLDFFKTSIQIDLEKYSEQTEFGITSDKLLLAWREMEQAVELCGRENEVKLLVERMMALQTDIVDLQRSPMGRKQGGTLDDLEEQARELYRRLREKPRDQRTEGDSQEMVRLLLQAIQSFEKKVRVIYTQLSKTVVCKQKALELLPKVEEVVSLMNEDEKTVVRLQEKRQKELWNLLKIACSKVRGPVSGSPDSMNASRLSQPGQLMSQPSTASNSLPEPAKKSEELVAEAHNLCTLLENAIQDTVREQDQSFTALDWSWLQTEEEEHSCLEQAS
Assay: K-LISA IKKβ inhibitor screening kit (ELISA of GST-IκBα phosphorylation by recombinant IKKβ)
Format: biochemical

## CC(=O)OC[C@@]12CC[C@H]3C(C)(C)CCC[C@]3(C)[C@H]1C[C@@H](C1=CC(=O)O[C@H]1O)O2 [AA, (12S)-17-acetoxy-8a,12-epoxy-16(R)-hydroxylabd-13(14)Z-en-15,16-olide]
  EC50: 13.2 µM

Reference: PMC2995738, “In Vitro and In Vivo Anti-Inflammatory Activity of 17-O-Acetylacuminolide through the Inhibition of Cytokines, NF-κB Translocation and IKKβ Activity” (PLoS ONE, 2010)
